Test systems include MDA-MB-231; RXF 393; NCI-H226; MDA-N; U-251; 786-0; CAKI-1; UO-31; SK-MEL-2; M14; SR; A498; SN12C; MCF7; NCI-H23; A549; OVCAR-3; UACC-62; SK-MEL-5; HCT-15.
Assay in all cases: DTP human tumour cell line panel, 48 h

SMILES strings stand for the structures.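 Dose response: 5 concentrations. Exposure: 48 h. Format: 96-well plates. Endpoint: linear interpolation; highest concentration if not reached. GI50 is the concentration that inhibits growth by half.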 Calls of active or inactive are those of the source. Cut-off read from the data, not from the text of the source: active = GI50 up to about 1.1 µM and inactive = higher.

Take `O=C(O)Cc1cc(Cl)ccc1O`: the GI50 in the assay with MDA-MB-231, in the assay with RXF 393, in the assay on NCI-H226, with MDA-N, in the assay on U-251 and with 786-0 was > 100 µM (inactive) throughout. The GI50 in the assay on CAKI-1 is > 100 µM (inactive); with UO-31, > 100 µM (inactive); in the assay on SK-MEL-2, > 100 µM (inactive); with M14, > 100 µM (inactive); with SR, > 76.9 µM (inactive); with A498, > 100 µM (inactive). The GI50 in the assay with SN12C, with MCF7, in the assay on NCI-H23, in the assay on A549, in the assay with OVCAR-3 and with UACC-62 was > 100 µM (inactive) throughout. In addition, the GI50 with SK-MEL-5 was > 100 µM (inactive); in the assay with HCT-15 it was > 100 µM.
As to `CC(CC[C@@]1(O)OC2C[C@H]3[C@@H]4CC[C@H]5CC(OC6OC(CO)C(OC7OC(CO)C(O)C(OC8OCC(O)C(O)C8O)C7OC7OC(CO)C(O)C(O)C7O)C(O)C6O)[C@H](O)CC5(C)[C@H]4CCC3(C)C2[C@@H]1C)COC1OC(CO)C(O)C(O)C1O` (stereo not given in full), the GI50 in the assay with MDA-MB-231 is 25.9 µM (inactive); in the assay with RXF 393, 4.28 µM (inactive); in the assay on NCI-H226, 13.5 µM (inactive); in the assay on MDA-N it was 15.4 µM (inactive); in the assay on U-251, 15.5 µM (inactive); in the assay with 786-0, 3.43 µM (inactive). In addition, the GI50 is 4.76 µM (inactive) in the assay on CAKI-1; 6.84 µM (inactive) in the assay with UO-31; 13.4 µM (inactive) with SK-MEL-2; 25 µM (inactive) in the assay on M14; 7.85 µM (inactive) with SR; 18.9 µM (inactive) in the assay with A498. The GI50 in the assay on SN12C is 2.35 µM (inactive); in the assay on MCF7, 8.71 µM (inactive); in the assay with NCI-H23 it was 2.8 µM (inactive); in the assay with A549, 3.47 µM (inactive); in the assay on OVCAR-3, 3.46 µM (inactive); with UACC-62, 16.4 µM (inactive). The GI50 in the assay with SK-MEL-5 was 6.9 µM (inactive); with HCT-15 it was 20.9 µM.
As to `CC1OC(OC2C(O)COC(OC3C(C)OC(OC4C(OC(=O)[C@]56CCC(C)(C)C[C@@H]5C5=CCC7[C@@]8(C)C[C@H](O)[C@H](OC9OC(CO)C(O)C(OC%10OC(CO)C(O)C(O)C%10O)C9O)[C@@](C)(CO)[C@@H]8CC[C@@]7(C)[C@]5(C)CC6)OCC(O)C4O)C(O)C3OC3OCC(O)C(O)C3O)C2O)C(O)C(O)C1O` (stereo not given in full), the GI50 is 3.12 µM (inactive) in the assay on MDA-MB-231; 5.55 µM (inactive) with RXF 393; 7.82 µM (inactive) in the assay with NCI-H226; 2.87 µM (inactive) with MDA-N; 5.62 µM (inactive) with U-251; 5.53 µM (inactive) in the assay with 786-0. For the same molecule, the GI50 is 4.39 µM (inactive) in the assay with CAKI-1; 3.15 µM (inactive) in the assay on UO-31; 3.47 µM (inactive) in the assay on SK-MEL-2; 1.87 µM (inactive) in the assay with M14; 7.08 µM (inactive) in the assay with SR; 2.15 µM (inactive) with A498. Besides, the GI50 in the assay on SN12C is 2 µM (inactive); in the assay with MCF7, 17.3 µM (inactive); with NCI-H23, 4.04 µM (inactive); in the assay on A549, 2.11 µM (inactive); in the assay on OVCAR-3 it was 11.4 µM (inactive); with UACC-62, 3.66 µM (inactive). In addition, the GI50 in the assay on SK-MEL-5 is 4.45 µM (inactive); with HCT-15 it was 13.5 µM.
Regarding `C#C[C@]1(O)CC[C@H]2[C@@H]3CCC4=C/C(=N/OC(=O)c5cccc6c(=O)c7ccccc7[nH]c56)CCC4[C@H]3CC[C@@]21CC` (stereo not given in full), the GI50 in the assay on MDA-MB-231 is 54.8 µM (inactive); in the assay on RXF 393, 2.34 µM (inactive); in the assay with NCI-H226, > 48.9 µM (inactive); with MDA-N, 26.4 µM (inactive); in the assay on U-251, 9.89 µM (inactive); with 786-0, 4.91 µM (inactive). For the same molecule, the GI50 with CAKI-1 was 32.4 µM (inactive); with UO-31 it was 23.2 µM (inactive); with SK-MEL-2 it was 32.4 µM (inactive); in the assay on M14 it was 34.5 µM (inactive); in the assay on SR, 3.25 µM (inactive); in the assay on A498, 10.1 µM (inactive). For the same molecule, the GI50 in the assay on SN12C is 39.6 µM (inactive); in the assay with MCF7, 25.1 µM (inactive); in the assay with NCI-H23 it was 26.4 µM (inactive); in the assay with A549, 41.7 µM (inactive); in the assay with OVCAR-3 it was 18.7 µM (inactive); with UACC-62, 20.4 µM (inactive). Moreover, the GI50 in the assay with SK-MEL-5 was 14.9 µM (inactive); in the assay with HCT-15, 13.4 µM.
As for `COC(=O)c1c(O)ccc2c1c1c(n2Cc2ccccn2)C(=O)c2ccccc2C1`, the GI50 was > 100 µM (inactive) in the assay on MDA-MB-231; 31.6 µM (inactive) in the assay on RXF 393; > 100 µM (inactive) in the assay on NCI-H226; > 100 µM (inactive) in the assay with MDA-N; > 100 µM (inactive) in the assay on U-251; > 100 µM (inactive) in the assay on 786-0. In addition, the GI50 in the assay with CAKI-1 was 19.1 µM (inactive); in the assay on UO-31, 54.5 µM (inactive); in the assay with SK-MEL-2, 75 µM (inactive); in the assay with M14, > 100 µM (inactive); in the assay on SR, > 100 µM (inactive); in the assay with A498 it was > 100 µM (inactive). For the same molecule, the GI50 in the assay with SN12C was > 100 µM (inactive); with MCF7, 22.9 µM (inactive); in the assay on NCI-H23 it was > 100 µM (inactive); with A549 it was 66.1 µM (inactive); in the assay with OVCAR-3, > 100 µM (inactive); in the assay on UACC-62, > 100 µM (inactive). For the same molecule, the GI50 with SK-MEL-5 was > 100 µM (inactive); with HCT-15, > 100 µM.
For the molecule `Cn1c(=O)cc(NNc2ccccc2)[nH]c1=O`, the GI50 with MDA-MB-231 was 18.7 µM (inactive); with RXF 393, 18 µM (inactive); in the assay on NCI-H226, > 100 µM (inactive); with MDA-N, > 100 µM (inactive); in the assay on U-251, 17.8 µM (inactive); in the assay with 786-0, 16.2 µM (inactive). Moreover, the GI50 with CAKI-1 was 15.6 µM (inactive); in the assay with UO-31, 83.2 µM (inactive); in the assay on SK-MEL-2, 36 µM (inactive); with M14 it was 29.9 µM (inactive); with SR, 10.7 µM (inactive); with A498, > 100 µM (inactive). Also, the GI50 is 61.5 µM (inactive) in the assay on SN12C; 1.78 µM (inactive) in the assay with MCF7; > 100 µM (inactive) in the assay on NCI-H23; > 100 µM (inactive) in the assay with A549; 16.7 µM (inactive) in the assay on OVCAR-3; 59.4 µM (inactive) with UACC-62. Moreover, the GI50 is > 100 µM (inactive) with SK-MEL-5 and 16.4 µM in the assay on HCT-15.
Consider `CC(C)CCNC(=O)c1ccc(CNC(=O)/C=C/c2cccc(Oc3ccccc3)c2)cc1`, for which the GI50 in the assay with MDA-MB-231 was 24.1 µM (inactive); in the assay on RXF 393, 18.6 µM (inactive); in the assay on NCI-H226, 47.4 µM (inactive); in the assay with MDA-N it was 16.5 µM (inactive); in the assay with U-251 it was 28.8 µM (inactive); in the assay with 786-0, 24 µM (inactive). Besides, the GI50 is 47.1 µM (inactive) with CAKI-1; 45 µM (inactive) in the assay with UO-31; 31.3 µM (inactive) in the assay with SK-MEL-2; 31 µM (inactive) with M14; 8.77 µM (inactive) with SR; 30.8 µM (inactive) in the assay with A498. In addition, the GI50 in the assay on SN12C was 43.7 µM (inactive); in the assay with MCF7, 36.5 µM (inactive); in the assay with NCI-H23, 34.3 µM (inactive); in the assay with A549, 42.6 µM (inactive); in the assay with OVCAR-3, 28.4 µM (inactive); in the assay with UACC-62 it was 23.8 µM (inactive). Moreover, the GI50 in the assay on SK-MEL-5 was 51.2 µM (inactive); in the assay on HCT-15, 38.6 µM.
Consider `CC(CN(C)C)C(=O)/C=C/c1ccc(Cl)c(Cl)c1` (stereo not given), for which the GI50 is 1.73 µM (inactive) in the assay with MDA-MB-231; 12.6 µM (inactive) in the assay with RXF 393; 2.2 µM (inactive) in the assay with NCI-H226; 2.07 µM (inactive) in the assay with MDA-N; 1.26 µM (inactive) in the assay with U-251; 0.766 µM (active) with 786-0. Besides, the GI50 is 2 µM (inactive) in the assay with CAKI-1; 1.69 µM (inactive) with UO-31; 2 µM (inactive) in the assay on SK-MEL-2; 2.09 µM (inactive) in the assay on M14; 1.02 µM (active) with SR; 1.78 µM (inactive) with A498. Also, the GI50 is 1.58 µM (inactive) in the assay with SN12C; 0.307 µM (active) in the assay on MCF7; 2.11 µM (inactive) in the assay on NCI-H23; 3.33 µM (inactive) with A549; 1.78 µM (inactive) in the assay on OVCAR-3; 1.8 µM (inactive) with UACC-62. For the same molecule, the GI50 with SK-MEL-5 was 1.6 µM (inactive); with HCT-15, 1.59 µM.
Take `NS(=O)(=O)c1ccc(/N=N/c2nc3[nH]cnc(=S)c3[nH]2)cc1`: the GI50 is 1.21 µM (inactive) in the assay with MDA-MB-231; 1.03 µM (active) with RXF 393; 4.65 µM (inactive) with NCI-H226; 0.684 µM (active) in the assay with MDA-N; 6.24 µM (inactive) in the assay with U-251; 0.507 µM (active) with 786-0. Also, the GI50 in the assay with CAKI-1 is 1.42 µM (inactive); in the assay with UO-31, 0.849 µM (active); in the assay with SK-MEL-2, 0.971 µM (active); with M14 it was 0.369 µM (active); in the assay on SR, 0.0803 µM (active); with A498, 23 µM (inactive). The GI50 was 1.87 µM (inactive) with SN12C; 0.944 µM (active) in the assay on MCF7; 1.74 µM (inactive) with NCI-H23; 4.93 µM (inactive) in the assay on A549; 1.22 µM (inactive) in the assay with OVCAR-3; 0.388 µM (active) in the assay on UACC-62. Moreover, the GI50 is 5.36 µM (inactive) in the assay with SK-MEL-5 and 2.09 µM in the assay on HCT-15.
In the case of `CCCCCCCCC/C=C1/CC(CO)(COC(=O)C2CCCCC2)OC1=O` (stereo not given), the GI50 in the assay on MDA-MB-231 was > 100 µM (inactive); with RXF 393, > 100 µM (inactive); with NCI-H226, > 100 µM (inactive); with MDA-N, 86.7 µM (inactive); with U-251 it was > 100 µM (inactive); in the assay on 786-0, > 100 µM (inactive). Further, the GI50 in the assay with CAKI-1, in the assay on UO-31, in the assay with SK-MEL-2, with M14, with SR and in the assay on A498 was > 100 µM (inactive) each time. Moreover, the GI50 in the assay on SN12C, with MCF7, with NCI-H23, in the assay on A549, with OVCAR-3 and in the assay on UACC-62 was > 100 µM (inactive) in each case. Also, the GI50 in the assay with SK-MEL-5 was 43.2 µM (inactive); with HCT-15, > 100 µM.

(Values after ChEMBL document CHEMBL1201862, “PubChem BioAssay data set” (2004).)
